The source of these data is patent US8124780B2, “Benzimidazole compound” (priority 2005, dated 2012).

This assay deals with gastric acid secretion. Kind of assay: animal or person. To be noted: for inhibition in vivo at 0.4 mg/kg / inhibition in vivo at 0.8 mg/kg / inhibition in vivo at 0.2 mg/kg / inhibition in vivo at 1.6 mg/kg / inhibition in vivo at 0.1 mg/kg: Canis lupus familiaris; for inhibition in vivo at 0.1 mg/kg: dose 0.1 mg/kg i.d. In kind it is in vivo, dog.
The mark [1] stands for this setting: iv, 24 h, read-out: Persistency of inhibitory effect against gastric acid secretion (%).
[2] abbreviates: iv, read-out: Inhibitory effect against gastric acid secretion (%).
Setting [3] is: dose 0.4 mg/kg i.d., first day, 1 h 40 min to 2 h after administration, histamine i.v., 0.4 mg/kg.
Where [4] appears, read: dose 0.4 mg/kg i.d., second day, 24 hours after administration, histamine i.v., 0.4 mg/kg.

Where a name gives a salt, the structure may show the parent alone. Read-outs that look alike come from different tables or passages of the source.

Take `Cc1c(OCC2OCC(C)(C)CO2)ccnc1C[S+]([O-])c1nc2ccccc2[nH]1` (stereo not drawn) [Example 1, 2-(((4-((5,5-dimethyl-1,3-dioxan-2-yl)methoxy)-3-methylpyridin-2-yl)methyl)sulfinyl)-1H-benzimidazole sodium salt]: the inhibition in vivo at 0.4 mg/kg by setting is: under setting [1], 76%; under setting [2], 94%. Moreover, the inhibition in vivo at 0.8 mg/kg is 90% under setting [1] and 100% under setting [2].
Turning to `Cc1c(OCC2OCC3(CC3)CO2)ccnc1C[S+]([O-])c1nc2ccccc2[nH]1` (stereo not drawn) [Example 2, 2-(((4-(5,7-dioxaspiro[2.5]oct-6-ylmethoxy)-3-methylpyridin-2-yl)methyl)sulfinyl)-1H-benzimidazole sodium salt], under setting [1], the inhibition in vivo at 0.2 mg/kg turned out to be 52%, the inhibition in vivo at 0.4 mg/kg was 90% and the inhibition in vivo at 0.8 mg/kg worked out at 96%. Besides, under setting [2], the inhibition in vivo at 0.2 mg/kg stood at 83%, the inhibition in vivo at 0.4 mg/kg amounted to 100% and the inhibition in vivo at 0.8 mg/kg was found to be 100%.
As to `CCCC1(CCOc2ccnc(C[S+]([O-])c3nc4ccccc4[nH]3)c2C)OCCO1` (stereo not drawn) [Example 3, 2-(((3-methyl-4-(2-(2-propyl-1,3-dioxolan-2-yl)ethoxy)pyridin-2-yl)methyl)sulfinyl)-1H-benzimidazole sodium salt], the inhibition in vivo at 0.8 mg/kg reads like this: under setting [1], 86%; under setting [2], 100%.
The like results for `CCC1(CCOc2ccnc(C[S+]([O-])c3nc4ccccc4[nH]3)c2C)OCC2(CO1)OCCO2` (stereo not drawn) [Example 4, 2-(((4-(2-(8-ethyl-1,4,7,9-tetraoxaspiro[4.5]dec-8-yl)ethoxy)-3-methylpyridin-2-yl)methyl)sulfinyl)-1H-benzimidazole sodium salt] were, in that order, 93% and 100%.
For `Cc1c(OCC2(C)OCC3(CO2)OCCO3)ccnc1C[S+]([O-])c1nc2ccccc2[nH]1` (stereo not drawn) [Example 5, 2-(((3-methyl-4-((8-methyl-1,4,7,9-tetraoxaspiro[4.5]dec-8-yl)methoxy)pyridin-2-yl)methyl)sulfinyl)-1H-benzimidazole sodium salt], the inhibition in vivo at 0.4 mg/kg runs as follows: under setting [1], 61%; under setting [2], 54%. In addition, the inhibition in vivo at 0.8 mg/kg reads like this: under setting [1], 89%; under setting [2], 100%.
As to `COC1OCC(COc2ccnc(C[S+]([O-])c3nc4ccccc4[nH]3)c2C)CO1` (stereo not drawn) [Example 6, 2-(((4-((2-methoxy-1,3-dioxan-5-yl)methoxy)-3-methylpyridin-2-yl)methyl)sulfinyl)-1H-benzimidazole sodium salt], the inhibition in vivo at 0.8 mg/kg under setting [1] worked out at 89% and the inhibition in vivo at 0.8 mg/kg under setting [2] was found to be 100%.
In the case of `Cc1c(OCC2COC(CF)(CF)OC2)ccnc1C[S+]([O-])c1nc2ccccc2[nH]1` (stereo not drawn) [Example 7, 2-(((4-((2,2-bis(fluoromethyl)-1,3-dioxan-5-yl)methoxy)-3-methylpyridin-2-yl)methyl)sulfinyl)-1H-benzimidazole sodium salt], the inhibition in vivo at 0.8 mg/kg was determined as 90% under setting [1] and 99% under setting [2].
Turning to `CCCC1(CCOc2ccnc(C[S+]([O-])c3nc4ccccc4[nH]3)c2C)OCCCO1` (stereo not drawn) [Example 8, 2-(((3-methyl-4-(2-(2-propyl-1,3-dioxan-2-yl)ethoxy)pyridin-2-yl)methyl)sulfinyl)-1H-benzimidazole sodium salt], the inhibition in vivo at 0.8 mg/kg is, setting by setting: under setting [1], 88%; under setting [2], 100%.
In the case of `Cc1c(OC2COC3(CCC3)OC2)ccnc1C[S+]([O-])c1nc2ccccc2[nH]1` (stereo not drawn) [Example 9, 2-(((4-(5,9-dioxaspiro[3.5]non-7-yloxy)-3-methylpyridin-2-yl)methyl)sulfinyl)-1H-benzimidazole sodium salt], the inhibition in vivo at 0.8 mg/kg runs as follows: under setting [1], 90%; under setting [2], 100%.
`Cc1c(OCC2COC3(CCOCC3)OC2)ccnc1C[S+]([O-])c1nc2ccccc2[nH]1` (stereo not drawn) [Example 10, 2-(((3-methyl-4-(1,5,9-trioxaspiro[5.5]undec-3-ylmethoxy)pyridin-2-yl)methyl)sulfinyl)-1H-benzimidazole sodium salt]: under setting [1], the inhibition in vivo at 0.8 mg/kg is 90% and the inhibition in vivo at 1.6 mg/kg is 87%. Besides, under setting [2], the inhibition in vivo at 0.8 mg/kg was determined as 98% and the inhibition in vivo at 1.6 mg/kg is 100%.
Regarding `Cc1cnc(C[S+]([O-])c2nc3ccccc3[nH]2)c(C)c1OCC1COC(C)(C)OC1` (stereo not drawn) [Example 11, 2-(((4-((2,2-dimethyl-1,3-dioxan-5-yl)methoxy)-3,5-dimethylpyridin-2-yl)methyl)sulfinyl)-1H-benzimidazole sodium salt], the inhibition in vivo at 0.4 mg/kg under setting [1] is 65% and the inhibition in vivo at 0.4 mg/kg under setting [2] turned out to be 79%. In addition, the inhibition in vivo at 0.8 mg/kg under setting [1] was 89% and the inhibition in vivo at 0.8 mg/kg under setting [2] was determined as 100%.
With `Cc1c(OCC2COC(C)(C)OC2)ccnc1C[S+]([O-])c1nc2ccccc2[nH]1` (stereo not drawn) [Example 12, 2-(((4-((2,2-dimethyl-1,3-dioxan-5-yl)methoxy)-3-methylpyridin-2-yl)methyl)sulfinyl)-1H-benzimidazole sodium salt], the inhibition in vivo at 0.8 mg/kg under setting [1] worked out at 86% and the inhibition in vivo at 0.8 mg/kg under setting [2] was 100%.
`Cc1cnc(C[S+]([O-])c2nc3ccccc3[nH]2)c(C)c1OCC1COC2(CCC2)OC1` (stereo not drawn) [Example 13, 2-(((4-(5,9-dioxaspiro[3.5]non-7-ylmethoxy)-3,5-dimethylpyridin-2-yl)methyl)sulfinyl)-1H-benzimidazole sodium salt]: the inhibition in vivo at 0.8 mg/kg is 74% under setting [1] and 100% under setting [2].
Take `Cc1cnc(C[S+]([O-])c2nc3ccccc3[n-]2)c(C)c1OCC1COC(C)(C)OC1.[Na+]` (stereo not drawn) [Example 19, Sodium salt of an optical isomer (long in retention time) of 2-(((4-((2,2-dimethyl-1,3-dioxan-5-yl)methoxy)-3,5-dimethylpyridin-2-yl)methyl)sulfinyl)-1H-benzimidazole]: the inhibition in vivo at 0.8 mg/kg (i.d., dose 0.8 mg/kg i.d., first day, 1 h 40 min to 2 h after administration, histamine i.v., read-out: Inhibitory effect against gastric acid secretion (%)) came to 82%. The “Inhibitory effect against gastric acid secretion (%)” value under setting [3] worked out at 13%. The “Persistency of inhibitory effect against gastric acid secretion (%)” value (from here on “Persistency of inhibitory effect … (%)”) by setting is: under setting [4], −4%; (dose 0.8 mg/kg i.d., second day, 24 hours after administration, histamine i.v.) 56%.
Regarding `Cc1cnc(C[S+]([O-])c2nc3ccccc3[n-]2)c(C)c1OCC1COC(C)(C)OC1.[Na+]` (stereo not drawn) [Example 20, Sodium salt of an optical isomer (short in retention time) of 2-(((4-(2,2-dimethyl-1,3-dioxan-5-yl)methoxy-3,5-dimethylpyridin-2-yl)methyl)sulfinyl)-1H-benzimidazole], the inhibition in vivo at 0.1 mg/kg stood at 6% (i.d., 24 h, second day, 24 hours after administration, histamine i.v., read-out: Persistency of inhibitory effect against gastric acid secretion (%)) and 8% (i.d., first day, 1 h 40 min to 2 h after administration, histamine i.v., read-out: Inhibitory effect against gastric acid secretion (%)). Also, the inhibition in vivo at 0.2 mg/kg was found to be 46% (i.d., 24 h, dose 0.2 mg/kg i.d., second day, 24 hours after administration, histamine i.v., read-out: Persistency of inhibitory effect against gastric acid secretion (%)) and 65% (i.d., dose 0.2 mg/kg i.d., first day, 1 h 40 min to 2 h after administration, histamine i.v., read-out: Inhibitory effect against gastric acid secretion (%)). The “Inhibitory effect against gastric acid secretion (%)” value is on record as 97% under setting [3] and 100% (dose 0.8 mg/kg i.d., first day, 1 h 40 min to 2 h after administration, histamine i.v., 0.8 mg/kg). The “Persistency of inhibitory effect … (%)” value runs as follows: under setting [4], 77%; (dose 0.8 mg/kg i.d., second day, 24 hours after administration, histamine i.v., 0.8 mg/kg) 89%.
Turning to `Cc1c(OCC2COC3(CCCC3)OC2)ccnc1C[S+]([O-])c1nc2ccccc2[nH]1` (stereo not drawn) [Example 21, 2-(((4-(6,10-dioxaspiro[4.5]dec-8-ylmethoxy)-3-methylpyridin-2-yl)methyl)sulfinyl)-1H-benzimidazole sodium salt], the inhibition in vivo at 1.6 mg/kg runs as follows: under setting [1], 94%; under setting [2], 100%.
In the same order, the values of `Cc1c(OCC2COC3(CCC3)OC2)ccnc1C[S+]([O-])c1nc2ccccc2[nH]1` (stereo not drawn) [Example 22, 2-(((4-(5,9-dioxaspiro[3.5]non-7-ylmethoxy)-3-methylpyridin-2-yl)methyl)sulfinyl)-1H-benzimidazole sodium salt] are 97% and 100%.
For `CCC1(CC)OCC(COc2ccnc(C[S+]([O-])c3nc4ccccc4[nH]3)c2C)CO1` (stereo not drawn) [Example 23, 2-(((4-((2,2-diethyl-1,3-dioxan-5-yl)methoxy)-3-methylpyridin-2-yl)methyl)sulfinyl)-1H-benzimidazole sodium salt], the inhibition in vivo at 1.6 mg/kg reads like this: under setting [1], 92%; under setting [2], 100%.
In the case of `Cc1c(OCC23COC(C)(OC2)OC3)ccnc1C[S+]([O-])c1nc2ccccc2[n-]1.[Na+]` (stereo not drawn) [Example 24, 2-(((3-methyl-4-((1-methyl-2,6,7-trioxabicyclo[2.2.2]oct-4-yl)methoxy)pyridin-2-yl)methyl)sulfinyl)-1H-benzimidazole sodium salt], where the note is “dog, in vivo, iv, 1.6 mg/kg”, the “Inhibitory effect against gastric acid secretion (%)” value came out at 88% and the “Persistency of inhibitory effect … (%)” value is given as 80%.
Take `Cc1c(OC2COC(C)(C)OC2)ccnc1C[S+]([O-])c1nc2ccccc2[nH]1` (stereo not drawn) [Example 26, 2-(((4-((2,2-dimethyl-1,3-dioxan-5-yl)oxy)-3-methylpyridin-2-yl)methyl)sulfinyl)-1H-benzimidazole sodium salt]: the inhibition in vivo at 1.6 mg/kg came to 80% under setting [1] and 100% under setting [2].
